Test results from ChEMBL document CHEMBL1152465, “Comparative evaluation of the inhibitory activities of a series of pyrimidinedione congeners that inhibit human immunodeficiency virus types 1 and 2” (Antimicrob Agents Chemother, 2008).
Active and inactive are the calls of the source.

Tests used:
[1] = tested on: Human immunodeficiency virus 1; assay: Antiviral activity against HIV1 RF infected in human CEM-SS cells assessed as inhibition of virus-induced cytopathic effect by XTT assay; assay type: functional, organism-based; details: Human immunodeficiency virus 1, RF
[2] = Therapeutic index, ratio of TC50 human HeLa cells expressing CD4-LTR to EC50 for HIV1 entry inhibition in human HeLa cells expressing CD4-LTR; assay type: cell-based; details: read-out: TI
[3] = tested on: Human immunodeficiency virus 2; assay: Antiviral activity against HIV2 ROD infected in human CEM-SS cells assessed as inhibition of virus-induced cytopathic effect by XTT assay; assay type: functional, organism-based, ISOLATE ROD
[4] = tested on: Human immunodeficiency virus 1; assay: Antiviral activity against HIV1 infected in human HeLa cells expressing CD4-LTR assessed as inhibition of viral entry-related beta galactosidase expression treated for 2 hrs followed by drug wash out measured after 48 hrs by MAGI assay; assay type: functional, organism-based; details: Human immunodeficiency virus 1, HeLa
[5] = tested on: Human immunodeficiency virus 2; assay: Antiviral activity against HIV2 assessed as inhibition of viral replication treated at time points after viral entry into host cells; assay type: functional, organism-based
[6] = target: Human immunodeficiency virus type 1 reverse transcriptase (Human immunodeficiency virus 1, UniProt Q72547, K103N); assay: Inhibition of HIV1 reverse transcriptase K103N mutant assessed as 32P-labeled GMP incorporation into nascent DNA strand
[7] = tested on: Human immunodeficiency virus 2; assay: Inhibition of HIV2 reverse transcriptase assessed as 32P-labeled GMP incorporation into nascent DNA strand at highest concentration
[8] = target: Human immunodeficiency virus type 1 reverse transcriptase (Human immunodeficiency virus 1, UniProt Q72547); assay: Inhibition of wild type HIV1 reverse transcriptase assessed as 32P-labeled GMP incorporation into nascent DNA strand
[9] = tested on: Human immunodeficiency virus 2; assay: Antiviral activity against HIV2 assessed as inhibition of viral single round replication at early time point; assay type: functional, organism-based
[10] = Cytotoxicity against human CEM-SS cells by XTT assay; assay type: cell-based; details: read-out: TC50 (the source's name)
[11] = tested on: Human immunodeficiency virus 2; assay: Inhibition of HIV2 reverse transcriptase
[12] = Therapeutic index, ratio of TC50 for human CEM-SS cells to EC50 for HIV1 RF infected in human CEM-SS cells; assay type: cell-based; details: read-out: TI
[13] = Cytotoxicity against human HeLa cells expressing CD4-LTR by XTT assay; assay type: cell-based; details: read-out: TC50 (the source's name)
[14] = tested on: Human immunodeficiency virus 1; assay: Antiviral activity against HIV1 infected in human CEM-SS cells assessed as inhibition of viral replication and virus-induced cytopathic effect by dose-response curve analysis; assay type: functional; details: Human immunodeficiency virus 1, CEM-SS
[15] = Therapeutic index, ratio of TC50 for human CEM-SS cells to EC50 for HIV2 ROD infected in human CEM-SS cells; assay type: cell-based; details: for TI: cem-ss; for selectivity ratio: CEM-SS cells, read-out: TI
[16] = Human immunodeficiency virus 2, ISOLATE ROD, CEM-SS, read-out: EC50

Row | SMILES | EC50 [1] | selectivity ratio [2] | EC50 ([3]; cem-ss) | EC50 [4] | Activity [5] | IC50 [6] | Activity [7] | IC50 [8] | Activity [9] | CC50 [10] | Activity [11] | selectivity ratio [12] | CC50 [13] | EC99 [14] | TI [15] | EC50 [3, 16] | selectivity ratio [15]
1 | Cc1cc(C)cc(C(=O)c2c(C(C)C)c(=O)[nH]c(=O)n2CCC2CCCC2)c1 | 0.02 µM | 1460 | Not Active | 0.014 µM | inactive | 2.6 µM | inactive | 0.065 µM | Active | 17.3 µM | inactive | 1180 | 20.6 µM | 1 µM | Not Active | – | –
2 | Cc1cc(C)cc(C(=O)c2c(C(C)C)c(=O)[nH]c(=O)n2CCC2C=CCC2)c1 (stereo not given) | 0.0026 µM | 341 | – | 0.05 µM | inactive | 5.5 µM | inactive | 0.023 µM | Active | 13.7 µM | inactive | 8940 | 18.3 µM | 1 µM | – | 0.2 µM | 65
3 | CCc1c(Sc2cc(C)cc(C)c2)n(CCC2CCCC2)c(=O)[nH]c1=O | 0.18 µM | 60 | – | 0.48 µM | inactive | 36.8 µM | inactive | 2.19 µM | Active | 29 µM | inactive | 154 | 29 µM | 1 µM | – | 26.9 µM | 1.1
4 | Cc1cc(C)cc(C(=O)c2c(C(C)C)c(=O)[nH]c(=O)n2Cc2ccccc2)c1 | 0.027 µM | 726 | – | 0.03 µM | inactive | 1.4 µM | inactive | 0.011 µM | Active | 17.8 µM | inactive | 840 | 20.1 µM | 1 µM | – | 0.1 µM | 223
5 | Cc1cc(C)cc(Oc2c(C(C)C)c(=O)[nH]c(=O)n2CCC2C=CCC2)c1 (stereo not given) | 0.0059 µM | 1650 | – | 0.009 µM | inactive | 1.5 µM | inactive | 0.027 µM | Active | 7.6 µM | inactive | 3560 | 14.2 µM | 1 µM | – | 0.4 µM | 21.5
6 | Cc1cc(C)cc(C(=O)c2c(C(C)C)c(=O)[nH]c(=O)n2CC2CCCCC2)c1 | 0.0052 µM | 127 | – | 0.24 µM | inactive | 16.5 µM | inactive | 0.008 µM | Active | 16.2 µM | inactive | 8550 | 30.4 µM | 1 µM | – | 0.7 µM | 23.8
7 | CCc1c(C(=O)c2cc(C)cc(C)c2)n(CC2CCCCC2)c(=O)[nH]c1=O | 0.054 µM | 20200 | – | 0.05 µM | inactive | > 271 µM | inactive | 0.173 µM | Active | 1100 µM | inactive | 20300 | 1090 µM | 1 µM | – | 3 µM | > 362
8 | CCc1c(C(=O)c2cc(C)cc(C)c2)n(CC2CCC2)c(=O)[nH]c1=O | 0.014 µM | 14500 | – | 0.06 µM | inactive | 4.38 µM | inactive | 2.4 µM | Active | 850 µM | inactive | 60700 | 850 µM | 1 µM | – | 4.5 µM | 190
9 | CCc1c(C(=O)c2cc(C)cc(C)c2)n(CC2CCCC2)c(=O)[nH]c1=O | 0.0034 µM | 996 | – | 0.25 µM | inactive | 6.9 µM | inactive | 0.169 µM | Active | 253 µM | inactive | 74700 | 253 µM | 1 µM | – | 0.8 µM | 299
10 | Cc1cc(C)cc(Oc2c(C(C)C)c(=O)[nH]c(=O)n2CCC2CC=CC2)c1 | 0.02 µM | 6 | – | 2.24 µM | inactive | 2.3 µM | inactive | 0.176 µM | Active | 10.3 µM | inactive | 918 | 14.2 µM | 1 µM | – | 1.4 µM | 7.3
11 | CCc1c(Oc2cc(C)cc(C)c2)n(CC2=CCCC2)c(=O)[nH]c1=O | 0.016 µM | 7280 | – | 0.009 µM | inactive | 0.22 µM | inactive | 0.122 µM | Active | 62.9 µM | inactive | 4080 | 62.9 µM | 1 µM | – | 1.3 µM | 47.6
12 | CCc1c(Sc2cc(C)cc(C)c2)n(CC2=CCCC2)c(=O)[nH]c1=O | 0.056 µM | 104000 | – | 0.009 µM | inactive | 66.8 µM | inactive | 0.138 µM | Active | 887 µM | inactive | 15800 | 887 µM | 1 µM | – | 2 µM | 451
13 | Cc1cc(C)cc(Sc2c(C(C)C)c(=O)[nH]c(=O)n2CC2CC=CC2)c1 | 1.22 µM | 307 | – | 0.08 µM | inactive | > 270 µM | inactive | 0.241 µM | Active | 26.5 µM | inactive | 22 | 23.2 µM | 1 µM | – | 15.3 µM | > 1.3
14 | Cc1cc(C)cc(C(=O)c2cc(=O)[nH]c(=O)n2CC2CC=CC2)c1 | 2.16 µM | 124 | – | 0.71 µM | inactive | > 308 µM | inactive | 119 µM | Active | 87.3 µM | inactive | 40 | 87.3 µM | 1 µM | – | 30.9 µM | 2.8
15 | CCc1c(C(=O)c2ccccc2)n(CC2CC=CC2)c(=O)[nH]c1=O | 0.0617 µM | 30 | – | 2.93 µM | inactive | 134 µM | inactive | 0.256 µM | Active | 88.5 µM | inactive | 1440 | 88.5 µM | 1 µM | – | 30.9 µM | 2.9
16 | CCc1c(Oc2ccccc2)n(CC2CC=CC2)c(=O)[nH]c1=O | 0.61 µM | 527 | – | 0.15 µM | inactive | 48.3 µM | inactive | 2.62 µM | Active | 76.2 µM | inactive | 127 | 76.9 µM | 1 µM | – | 32 µM | 2.4
17 | Cc1cc(C)cc(Sc2c(C(C)C)c(=O)[nH]c(=O)n2CCC2=CCCC2)c1 | 0.94 µM | 1990 | Not Active | 0.011 µM | inactive | > 260 µM | inactive | 2.36 µM | Active | 19.3 µM | inactive | 26 | 21.6 µM | 1 µM | Not Active | – | –
